Measured values as given in patent US20170008888A1 (KYORIN PHARMACEUTICAL CO., LTD., priority 2014, published 2017).

Legend:
Format in all cases: binding
[1] = target: T1, ERK5 (Homo sapiens, UniProt Q13164); test: Probe-based (AX9989 acyl phosphate ATP probe) kinase profiling in Jurkat lysate: ERK5; settings: for IC50: calculated from percent inhibition of AX9989 labeling and the screening concentration, Jurkat lysate; for inhibition at 1 µM: screening concentration 1.0 μM; for inhibition at 1 µM / inhibition at 0.1 µM: read-out: Kinase inhibition % at indicated screening concentration: ERK5; for inhibition at 0.1 µM: screening concentration 0.1 μM
T1 construct: screened for activity against several kinases in Jurkat cells; endogenous in cells; host or cells: Jurkat cell lysate
T1 sequence (Q13164 whole entry): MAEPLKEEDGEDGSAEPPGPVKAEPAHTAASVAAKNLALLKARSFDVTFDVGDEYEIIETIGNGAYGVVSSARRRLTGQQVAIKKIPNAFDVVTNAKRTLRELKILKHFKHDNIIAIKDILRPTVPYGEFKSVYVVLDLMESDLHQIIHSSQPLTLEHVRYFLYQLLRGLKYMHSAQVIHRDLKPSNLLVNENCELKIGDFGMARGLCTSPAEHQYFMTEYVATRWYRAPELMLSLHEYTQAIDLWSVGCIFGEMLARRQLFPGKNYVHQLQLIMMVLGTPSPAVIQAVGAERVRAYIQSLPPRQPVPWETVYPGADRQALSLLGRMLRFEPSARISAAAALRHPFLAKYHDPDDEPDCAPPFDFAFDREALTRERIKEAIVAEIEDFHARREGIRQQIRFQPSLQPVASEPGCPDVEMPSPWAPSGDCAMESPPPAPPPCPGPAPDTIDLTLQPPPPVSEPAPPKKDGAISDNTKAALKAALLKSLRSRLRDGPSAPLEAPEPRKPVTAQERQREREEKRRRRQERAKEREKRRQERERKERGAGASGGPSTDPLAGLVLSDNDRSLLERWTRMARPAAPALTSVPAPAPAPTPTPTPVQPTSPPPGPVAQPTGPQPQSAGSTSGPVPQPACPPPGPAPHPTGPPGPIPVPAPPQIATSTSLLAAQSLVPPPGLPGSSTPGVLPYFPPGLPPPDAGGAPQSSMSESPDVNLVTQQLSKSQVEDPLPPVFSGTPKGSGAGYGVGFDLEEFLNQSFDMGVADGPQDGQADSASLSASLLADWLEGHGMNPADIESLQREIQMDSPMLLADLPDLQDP
In short: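 ERK5 IC50 values came from percent inhibition at the screening concentration, measured as loss of LC/MS signal of probe-labelled active-site peptides. Compound was added for 15 min at room temperature to Jurkat lysate (5 mg/ml, 20 mM MnCl2) before labelling with AX9989 ATP acyl phosphate probe at 5 μM.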

[2] = target: T2, JAK1 (Homo sapiens, UniProt P23458); test: Probe-based (AX9989) kinase profiling in Jurkat lysate: JAK1; settings: read-out: Kinase inhibition % at indicated screening concentration: JAK1; for inhibition at 1 µM: screening concentration 1.0 μM; for inhibition at 0.1 µM: screening concentration 0.1 μM
T2 construct: screened for activity against several kinases in Jurkat cells; endogenous in cells; host or cells: Jurkat cell lysate
T2 sequence (P23458 whole entry): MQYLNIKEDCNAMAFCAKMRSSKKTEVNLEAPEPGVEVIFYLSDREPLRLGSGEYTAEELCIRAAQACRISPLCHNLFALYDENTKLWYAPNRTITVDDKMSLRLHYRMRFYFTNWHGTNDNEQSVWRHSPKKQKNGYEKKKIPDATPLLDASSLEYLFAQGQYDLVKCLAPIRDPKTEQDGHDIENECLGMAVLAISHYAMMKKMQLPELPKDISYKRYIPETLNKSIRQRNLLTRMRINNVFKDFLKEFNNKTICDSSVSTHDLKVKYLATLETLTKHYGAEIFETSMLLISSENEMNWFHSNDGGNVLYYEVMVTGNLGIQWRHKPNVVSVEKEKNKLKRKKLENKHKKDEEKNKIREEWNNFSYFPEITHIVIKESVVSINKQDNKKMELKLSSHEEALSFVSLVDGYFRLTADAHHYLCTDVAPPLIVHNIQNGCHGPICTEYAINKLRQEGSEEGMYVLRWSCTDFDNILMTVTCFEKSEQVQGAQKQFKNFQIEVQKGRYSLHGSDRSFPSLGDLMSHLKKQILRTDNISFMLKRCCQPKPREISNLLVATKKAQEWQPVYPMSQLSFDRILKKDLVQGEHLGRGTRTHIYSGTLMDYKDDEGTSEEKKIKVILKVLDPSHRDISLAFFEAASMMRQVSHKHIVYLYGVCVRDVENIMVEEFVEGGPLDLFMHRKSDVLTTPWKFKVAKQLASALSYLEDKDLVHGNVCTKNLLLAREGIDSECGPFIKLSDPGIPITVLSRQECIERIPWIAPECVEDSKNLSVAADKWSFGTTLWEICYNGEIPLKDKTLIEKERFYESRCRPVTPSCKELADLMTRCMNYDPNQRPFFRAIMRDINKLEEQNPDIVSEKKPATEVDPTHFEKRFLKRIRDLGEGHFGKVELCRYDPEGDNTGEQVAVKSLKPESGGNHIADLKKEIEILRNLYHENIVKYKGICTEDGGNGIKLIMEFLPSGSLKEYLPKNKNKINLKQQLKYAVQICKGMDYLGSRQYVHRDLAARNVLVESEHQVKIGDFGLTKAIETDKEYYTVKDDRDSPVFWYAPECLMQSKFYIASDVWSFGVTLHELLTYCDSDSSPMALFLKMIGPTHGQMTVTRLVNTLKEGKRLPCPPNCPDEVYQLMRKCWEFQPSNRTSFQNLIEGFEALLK
In short: (§1)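 Read-out: LC/MS intensity of desthiobiotinylated kinase active-site peptides, percent inhibition normalized to no-compound lysate. Jurkat lysate with 20 mM MnCl2 received compound for 15 min at room temperature, then 5 μM AX9989 probe; duplicates.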

[3] = target: T3, TAO2 (Homo sapiens, UniProt Q9UL54); test: Probe-based (AX9989) kinase profiling in Jurkat lysate: TAO2; settings: read-out: Kinase inhibition % at indicated screening concentration: TAO2; for inhibition at 1 µM: screening concentration 1.0 μM; for inhibition at 0.1 µM: screening concentration 0.1 μM
T3 construct: screened for activity against several kinases in Jurkat cells; endogenous in cells; host or cells: Jurkat cell lysate
T3 sequence (Q9UL54 1-1235): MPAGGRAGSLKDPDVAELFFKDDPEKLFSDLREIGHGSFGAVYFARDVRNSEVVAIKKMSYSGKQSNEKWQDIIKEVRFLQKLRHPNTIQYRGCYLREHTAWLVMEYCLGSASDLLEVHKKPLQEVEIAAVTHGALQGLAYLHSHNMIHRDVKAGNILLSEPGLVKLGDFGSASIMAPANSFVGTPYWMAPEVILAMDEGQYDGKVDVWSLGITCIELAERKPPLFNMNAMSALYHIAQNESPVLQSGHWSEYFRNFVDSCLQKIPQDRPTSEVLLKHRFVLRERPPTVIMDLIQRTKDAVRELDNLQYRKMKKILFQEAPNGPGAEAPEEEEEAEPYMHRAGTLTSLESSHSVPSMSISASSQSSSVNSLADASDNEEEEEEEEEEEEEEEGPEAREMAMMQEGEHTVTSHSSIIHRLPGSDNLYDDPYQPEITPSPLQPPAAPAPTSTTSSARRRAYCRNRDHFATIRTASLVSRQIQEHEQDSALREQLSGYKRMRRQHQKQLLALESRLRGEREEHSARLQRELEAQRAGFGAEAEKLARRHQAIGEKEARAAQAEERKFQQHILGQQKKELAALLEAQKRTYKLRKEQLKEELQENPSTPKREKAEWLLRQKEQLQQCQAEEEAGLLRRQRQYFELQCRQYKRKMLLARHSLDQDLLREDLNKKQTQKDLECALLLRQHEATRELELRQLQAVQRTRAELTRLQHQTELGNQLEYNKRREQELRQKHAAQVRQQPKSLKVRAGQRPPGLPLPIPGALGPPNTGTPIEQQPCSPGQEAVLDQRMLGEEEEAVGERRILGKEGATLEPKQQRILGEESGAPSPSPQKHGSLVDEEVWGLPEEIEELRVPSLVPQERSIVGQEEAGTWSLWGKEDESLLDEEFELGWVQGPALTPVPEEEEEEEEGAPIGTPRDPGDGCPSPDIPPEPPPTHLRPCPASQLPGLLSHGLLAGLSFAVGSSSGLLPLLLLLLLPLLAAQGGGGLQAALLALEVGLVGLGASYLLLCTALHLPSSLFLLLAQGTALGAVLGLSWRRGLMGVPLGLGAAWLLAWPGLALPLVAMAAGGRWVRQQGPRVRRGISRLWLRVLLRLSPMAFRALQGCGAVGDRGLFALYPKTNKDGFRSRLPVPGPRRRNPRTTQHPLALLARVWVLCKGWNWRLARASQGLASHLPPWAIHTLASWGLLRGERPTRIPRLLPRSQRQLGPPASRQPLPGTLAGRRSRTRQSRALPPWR
In short: as §1

| IC50 [1] | inhibition at 1 µM [1] | inhibition at 1 µM [2] | inhibition at 1 µM [3] | inhibition at 0.1 µM [1] | inhibition at 0.1 µM [2] | inhibition at 0.1 µM [3] | Structure (SMILES) |
| --- | --- | --- | --- | --- | --- | --- | --- |
| 101 to 500 nM | 75 to 90% | ≤ 35% | ≤ 35% | – | – | – | CCOc1cc(C(=O)N2CCCCC2)ccc1Nc1cc2c(cn1)N(C)C(=O)c1ccccc1N2C [Compound 12] |
| ≤ 50 nM | – | – | – | 75 to 90% | ≤ 35% | ≤ 35% | CCOc1cc(C(=O)N2CCNC[C@@H]2C)ccc1Nc1cc2c(cn1)N(C)C(=O)c1ccccc1N2C [Compound 31] |
| 50 to 100 nM | – | – | – | > 90% | ≤ 35% | ≤ 35% | CCOc1cc(C(=O)N(C)CCN2CCCC2)ccc1Nc1cc2c(cn1)N(C)C(=O)c1ccccc1N2C [Compound 28] |
| 101 to 500 nM | 75 to 90% | ≤ 35% | ≤ 35% | – | – | – | CCOc1cc(C(=O)NCCN2CCN(C)CC2)ccc1Nc1cc2c(cn1)N(C)C(=O)c1ccccc1N2C [Compound 44] |
| 101 to 500 nM | 75 to 90% | ≤ 35% | ≤ 35% | – | – | – | CN1C(=O)c2ccccc2N(C)c2cc(N[C@H]3CC[C@H](NC4=NCCO4)CC3)ncc21 [Compound 45] |
| ≤ 50 nM | – | – | – | > 90% | ≤ 35% | ≤ 35% | CCOc1cc(C(=O)N2CCC(NC)C2)ccc1Nc1cc2c(cn1)N(C)C(=O)c1occc1N2C (stereo not shown) [Compound 43] |
| ≤ 50 nM | – | – | – | > 90% | ≤ 35% | ≤ 35% | CCOc1cc(C(=O)N2CC[C@@H](N(C)C)C2)ccc1Nc1cc2c(cn1)N(C)C(=O)c1occc1N2C [Compound 25] |
| ≤ 50 nM | > 90% | ≤ 35% | ≤ 35% | – | – | – | CCOc1cc(C(=O)N(C)CCN(CC)CC)ccc1Nc1cc2c(cn1)N(C)C(=O)c1ccccc1N2C [Compound 42] |
| ≤ 50 nM | – | – | – | 75 to 90% | ≤ 35% | ≤ 35% | CCOc1cc(C(=O)N2CCC(N3CCCC3)C2)ccc1Nc1cc2c(cn1)N(C)C(=O)c1occc1N2C (stereo not shown) [Compound 15] |
| ≤ 50 nM | – | – | – | 75 to 90% | ≤ 35% | ≤ 35% | CCOc1cc(C(=O)N2CC[C@H](O)C2)ccc1Nc1cc2c(cn1)N(C)C(=O)c1occc1N2C [Compound 17] |
| ≤ 50 nM | – | – | – | 75 to 90% | ≤ 35% | ≤ 35% | CCOc1cc(C(=O)N2CCN(CCO)CC2)ccc1Nc1cc2c(cn1)N(C)C(=O)c1ccccc1N2C [Compound 37] |
| ≤ 50 nM | – | – | – | 50 to 75% | ≤ 35% | ≤ 35% | CCOc1cc(C(=O)N2CCN(C3CC3)CC2)ccc1Nc1cc2c(cn1)N(C)C(=O)c1ccccc1N2C [Compound 39] |
| ≤ 50 nM | > 90% | ≤ 35% | ≤ 35% | – | – | – | CCOc1cc(C(=O)N2CCC(N3CCN(C)CC3)CC2)ccc1Nc1cc2c(cn1)N(C)C(=O)c1ncccc1N2C [Compound 40] |
| ≤ 50 nM | – | – | – | 75 to 90% | ≤ 35% | ≤ 35% | CCOc1cc(C(=O)N(C)CCn2ccnc2)ccc1Nc1cc2c(cn1)N(C)C(=O)c1ccccc1N2C [Compound 30] |
| ≤ 50 nM | – | – | – | 75 to 90% | ≤ 35% | ≤ 35% | C=CCN1CCN(C(=O)c2ccc(Nc3cc4c(cn3)N(C)C(=O)c3ccccc3N4C)c(OCC)c2)CC1 [Compound 21] |
| ≤ 50 nM | – | – | – | > 90% | ≤ 35% | ≤ 35% | CCOc1cc(C(=O)N2CC[C@@H](N3CCCC3)C2)ccc1Nc1cc2c(cn1)N(C)C(=O)c1ccccc1N2C [Compound 24] |
